Source: US7183267B2, “β-lactamase inhibitors and methods of use thereof” (priority 2003, dated 2007)
Values after ≈ are worked out from the molar mass of the structure shown. Like-named read-outs stand apart in the source and are kept apart here.

Legend:
[1] = test system: methicillin sensitive S. aureus ATCC 25923 (MSSA); experiment: MIC assay, broth microdilution, MSSA; assay type: cell-based; conditions: Staphylococcus aureus
Protocol: (3) methicillin sensitive S. aureus ATCC 25923 (MSSA). This strain was obtained from ATCC and was used as a control.
The strains were processed according to procedures recommended by ATCC, or procedures that are routinely used. Single colonies of each organism were picked for purification to generate pure working cultures. Prior to each experiment each strain was subcultured on a fresh Mueller-Hinton agar plate (MHA).
Inocula for the MIC assays were prepared by transferring a tiny portion of one colony from a MHA plate to 2 ml of Mueller-Hinton broth (MHB) such that the estimated cell density was about 10^7 colony forming unit (CFU)/ml. This cell suspension was then further diluted 10-fold (to 10^6 CFU/ml) by transferring the 2 ml cell suspension to 18 ml of MHB. Addition of 50 μl of this dilute cell suspension to 50 μl of growth medium yielded the desired cell density, namely about 5×10^4 CFU/well, or 5×10^5 CFU/ml.
The MIC value of oxacillin was determined using the broth microdilution procedure recommended by the National Committee of Clinical Laboratory Standards (NCCLS, 2000).
The MIC experiments were performed in duplicate in 96-well microtiter plates using MHB. A stock solution of 2.6 mg/0.5 ml was prepared in dimethylsulfoxide (DMSO). A total of 8 two-fold serial dilutions were made with DMSO. Initial oxacillin doses used were (μg/ml): 64, 32, 16, 8, 4, 2, 1, and 0.5. Doses were adjusted in the confirmatory experiment, if needed, in order to establish an actual MIC value.
(§1) To each well of a 96 well microtiter plate was added 47.5 μl of MHB. A volume of 2.5 μl of each dilution of oxacillin was then transferred to appropriate wells containing the medium. All wells, except the sterility control wells, were then inoculated with 50 μl of a diluted cell suspension to give a final volume of 100 μl and a final cell density of 5×10^4 CFU/well. The volume in the sterility control wells was adjusted to 100 μl with MHB. A sterile pipette tip was used to mix the contents of each well (one tip was used going from the low to the high concentration in the same column). The microtiter plates were covered with the lids and were placed in large Stratagene Big Blue plates (Cat. # 400041). Four large kimwipes moistened with tap water were placed near the edges of the Stratagene plates to prevent evaporation of the medium. The microtiter plates were incubated for at least 24 hours at 35° C. The plates were then evaluated for growth in each well. Controls included: medium sterility and negative control (medium and bacteria only).
The procedure used to determine the antimicrobial activity of the compounds of the present invention was identical to the broth microdilution procedure described above with the exception of the preparation of the stock solutions. Stock solution at concentration of 40.96 mg/0.5 ml was prepared in DMSO for each of the compounds. A total of 8 two-fold dilutions were then made in DMSO. A volume of 2.5 μl of each dilution was delivered to appropriate wells. The initial doses used were (μg/ml): 512, 256, 128, 64, 32, 16, 8, and 4.
(§2) A numerical code was used to evaluate the extent of growth as indicated below. • 0: absence of growth • 1: barely visible (faint) growth • 2: fair growth but less than the negative solvent control • 3: growth is equivalent to the negative solvent control.
(§3) The lowest dose at which no visible growth is observed was determined to be the MIC value.
MIC assays were performed with oxacillin and the four compounds. Each of the compounds was tested at the following 8 doses (μg/ml): 512, 256, 128, 64, 32, 16, 8, and 4. Oxacillin was tested at the following 8 doses (μg/ml): 64, 32, 16, 8, 4, 2, 1, and 0.5.

[2] = test system: methicillin resistant S. aureus ATCC 33591 (MRSA-ATCC); experiment: Matrix system: oxacillin plus β-lactamase inhibitor, MRSA-ATCC; assay type: cell-based; parameters: key to extent of growth (numerical code): 0 = no growth, 1 = faint, 2 = fair, 3 = equal to solvent control
Protocol: as §1, §2, §3
The effect of the four compounds of the present invention on oxacillin resistance of the MRSA strains was determined using a matrix system. The β-lactamase inhibitors were tested at 5 doses against up to eleven concentrations of oxacillin. […] A 96-well microtiter plate was used for the matrix system. The procedure was identical to that described above for the MIC determination, with the exception that both oxacillin and one each of the β-lactamase inhibitors was added, 2.5 μl each, to the wells prior to addition of the test organisms.
Matrix Study:Oxacillin and Compound FL201 with MRSA-ATCC
Matrix Study: Oxacillin and Compound Fl202 with MRSA-ATCC

Structure (SMILES): COC(=O)c1cc(B(O)O)cc([N+](=O)[O-])c1 [Compound F1202]
- MIC ([1]; 24 h): 128 µg/mL (≈ 569 µM)
- MIC of oxacillin ([2]; matrix study, with compound 1 μg/ml): 32 µg/mL
- MIC of oxacillin ([2]; matrix study, with compound 2 μg/ml): 16 µg/mL
- MIC of oxacillin ([2]; matrix study, with compound 4 μg/ml): 1 µg/mL
- MIC of oxacillin ([2]; matrix study, with compound 8 μg/ml): 0.125 µg/mL
- MIC of oxacillin ([2]; matrix study, with compound 16 μg/ml): <0.064 µg/mL
- extent of growth (numerical code) ([2]; oxacillin 0 μg/ml + compound 1 μg/ml): 3
- extent of growth (numerical code) ([2]; oxacillin 0 μg/ml + compound 2 μg/ml): 2
- extent of growth (numerical code) ([2]; oxacillin 0 μg/ml + compound 4 μg/ml): 2
- extent of growth (numerical code) ([2]; oxacillin 0 μg/ml + compound 8 μg/ml): 1
- extent of growth (numerical code) ([2]; oxacillin 0 μg/ml + compound 16 μg/ml): 1
- extent of growth (numerical code) ([2]; oxacillin 0.064 μg/ml + compound 1 μg/ml): 3
- extent of growth (numerical code) ([2]; oxacillin 0.064 μg/ml + compound 2 μg/ml): 3
- extent of growth (numerical code) ([2]; oxacillin 0.064 μg/ml + compound 4 μg/ml): 2
- extent of growth (numerical code) ([2]; oxacillin 0.064 μg/ml + compound 8 μg/ml): 1
- extent of growth (numerical code) ([2]; oxacillin 0.064 μg/ml + compound 16 μg/ml): 0
- extent of growth (numerical code) ([2]; oxacillin 0.125 μg/ml + compound 1 μg/ml): 3
- extent of growth (numerical code) ([2]; oxacillin 0.125 μg/ml + compound 2 μg/ml): 3
- extent of growth (numerical code) ([2]; oxacillin 0.125 μg/ml + compound 4 μg/ml): 2
- extent of growth (numerical code) ([2]; oxacillin 0.125 μg/ml + compound 8 μg/ml): 0
- extent of growth (numerical code) ([2]; oxacillin 0.125 μg/ml + compound 16 μg/ml): 0
- extent of growth (numerical code) ([2]; oxacillin 0.25 μg/ml + compound 1 μg/ml): 3
- extent of growth (numerical code) ([2]; oxacillin 0.25 μg/ml + compound 2 μg/ml): 2
- extent of growth (numerical code) ([2]; oxacillin 0.25 μg/ml + compound 4 μg/ml): 1
- extent of growth (numerical code) ([2]; oxacillin 0.25 μg/ml + compound 8 μg/ml): 0
- extent of growth (numerical code) ([2]; oxacillin 0.25 μg/ml + compound 16 μg/ml): 0
- extent of growth (numerical code) ([2]; oxacillin 0.5 μg/ml + compound 1 μg/ml): 3
- extent of growth (numerical code) ([2]; oxacillin 0.5 μg/ml + compound 2 μg/ml): 2
- extent of growth (numerical code) ([2]; oxacillin 0.5 μg/ml + compound 4 μg/ml): 1
- extent of growth (numerical code) ([2]; oxacillin 0.5 μg/ml + compound 8 μg/ml): 0
- extent of growth (numerical code) ([2]; oxacillin 0.5 μg/ml + compound 16 μg/ml): 0
- extent of growth (numerical code) ([2]; oxacillin 1 μg/ml + compound 1 μg/ml): 3
- extent of growth (numerical code) ([2]; oxacillin 1 μg/ml + compound 2 μg/ml): 2
- extent of growth (numerical code) ([2]; oxacillin 1 μg/ml + compound 4 μg/ml): 0
- extent of growth (numerical code) ([2]; oxacillin 1 μg/ml + compound 8 μg/ml): 0
- extent of growth (numerical code) ([2]; oxacillin 1 μg/ml + compound 16 μg/ml): 0
- extent of growth (numerical code) ([2]; oxacillin 2 μg/ml + compound 1 μg/ml): 2
- extent of growth (numerical code) ([2]; oxacillin 2 μg/ml + compound 2 μg/ml): 2
- extent of growth (numerical code) ([2]; oxacillin 2 μg/ml + compound 4 μg/ml): 0
- extent of growth (numerical code) ([2]; oxacillin 2 μg/ml + compound 8 μg/ml): 0
- extent of growth (numerical code) ([2]; oxacillin 2 μg/ml + compound 16 μg/ml): 0
- extent of growth (numerical code) ([2]; oxacillin 4 μg/ml + compound 1 μg/ml): 2
- extent of growth (numerical code) ([2]; oxacillin 4 μg/ml + compound 2 μg/ml): 2
- extent of growth (numerical code) ([2]; oxacillin 4 μg/ml + compound 4 μg/ml): 0
- extent of growth (numerical code) ([2]; oxacillin 4 μg/ml + compound 8 μg/ml): 0
- extent of growth (numerical code) ([2]; oxacillin 4 μg/ml + compound 16 μg/ml): 0
- extent of growth (numerical code) ([2]; oxacillin 8 μg/ml + compound 1 μg/ml): 2
- extent of growth (numerical code) ([2]; oxacillin 8 μg/ml + compound 2 μg/ml): 1
- extent of growth (numerical code) ([2]; oxacillin 8 μg/ml + compound 4 μg/ml): 0
- extent of growth (numerical code) ([2]; oxacillin 8 μg/ml + compound 8 μg/ml): 0
- extent of growth (numerical code) ([2]; oxacillin 8 μg/ml + compound 16 μg/ml): 0
- extent of growth (numerical code) ([2]; oxacillin 16 μg/ml + compound 1 μg/ml): 2
- extent of growth (numerical code) ([2]; oxacillin 16 μg/ml + compound 2 μg/ml): 0
- extent of growth (numerical code) ([2]; oxacillin 16 μg/ml + compound 4 μg/ml): 0
- extent of growth (numerical code) ([2]; oxacillin 16 μg/ml + compound 8 μg/ml): 0
- extent of growth (numerical code) ([2]; oxacillin 16 μg/ml + compound 16 μg/ml): 0
- extent of growth (numerical code) ([2]; oxacillin 32 μg/ml + compound 1 μg/ml): 0
- extent of growth (numerical code) ([2]; oxacillin 32 μg/ml + compound 2 μg/ml): 0
- extent of growth (numerical code) ([2]; oxacillin 32 μg/ml + compound 4 μg/ml): 0
- extent of growth (numerical code) ([2]; oxacillin 32 μg/ml + compound 8 μg/ml): 0
- extent of growth (numerical code) ([2]; oxacillin 32 μg/ml + compound 16 μg/ml): 0
- extent of growth (numerical code) ([2]; oxacillin 64 μg/ml + compound 1 μg/ml): 0
- extent of growth (numerical code) ([2]; oxacillin 64 μg/ml + compound 2 μg/ml): 0
- extent of growth (numerical code) ([2]; oxacillin 64 μg/ml + compound 4 μg/ml): 0
- extent of growth (numerical code) ([2]; oxacillin 64 μg/ml + compound 8 μg/ml): 0
- extent of growth (numerical code) ([2]; oxacillin 64 μg/ml + compound 16 μg/ml): 0

Structure (SMILES): Cc1onc(-c2ccccc2)c1C(=O)N[C@@H]1C(=O)N2[C@@H]1SC(C)(C)[C@@H]2C(=O)O [Oxacillin, reference compound]
- MIC ([1]; MSSA, substance alone, at least 24 hours at 35° C., read-out: MIC): 0.25 µg/mL (≈ 0.623 µM)
- MIC ([2]; Staphylococcus aureus, 24 h, matrix study, compound 0 μg/ml): 64 µg/mL
- extent of growth (numerical code) ([2]; oxacillin 0.064 μg/ml + compound 0 μg/ml): 3
- extent of growth (numerical code) ([2]; oxacillin 0.125 μg/ml + compound 0 μg/ml): 3
- extent of growth (numerical code) ([2]; oxacillin 0.25 μg/ml + compound 0 μg/ml): 3
- extent of growth (numerical code) ([2]; oxacillin 0.5 μg/ml + compound 0 μg/ml): 3
- extent of growth (numerical code) ([2]; oxacillin 1 μg/ml + compound 0 μg/ml): 3
- extent of growth (numerical code) ([2]; oxacillin 2 μg/ml + compound 0 μg/ml): 3
- extent of growth (numerical code) ([2]; oxacillin 4 μg/ml + compound 0 μg/ml): 3
- extent of growth (numerical code) ([2]; oxacillin 8 μg/ml + compound 0 μg/ml): 3
- extent of growth (numerical code) ([2]; oxacillin 16 μg/ml + compound 0 μg/ml): 2
- extent of growth (numerical code) ([2]; oxacillin 32 μg/ml + compound 0 μg/ml): 2
- extent of growth (numerical code) ([2]; oxacillin 64 μg/ml + compound 0 μg/ml): 0
